# Experimental data: patent US8183380B2, “2-aminoquinolines” (Hoffmann-La Roche Inc., priority 2008, dated 2012)
# Where a name gives a salt, the structure may show the parent alone.
# Target: T1, recombinant human 5-HT5A receptor (Homo sapiens, UniProt P47898)
# T1 construct: expressed in transfected cells; host or cells: HEK-EBNA (Human Embryonic Kidney-EBNA) cells, transient cDNA expression; membranes
# Test: [3H]LSD radioligand binding assay
# Details: [3H]LSD (approximately 1 nM); membranes from transiently expressed 5-HT5A receptors in HEK-EBNA cells; Ki from IC50 by Cheng-Prussoff equation
# Method: A [^3H]LSD radioligand binding assay was used to determine the affinity of the compounds for the recombinant human 5-HT5A receptor, in membranes from transiently (cDNA) expressed 5-HT5A receptors in Human Embryonic Kidney-EBNA (HEK-EBNA) cells. Assay buffer consisted of Tris (50 mM) buffer containing 1 mM EGTA, 10 mM MgCl2 (pH 7.4) and 10 μM pargyline. The binding assay was carried out in 96-well-plates in the presence of [^3H]LSD (approximately 1 nM), approximately 2 μg/well of membrane protein, and 0.5 mg of Ysi-poly-1-lysine SPA beads in a final volume of 200 μl of buffer. Non-specific binding was defined using methiothepin 2 μM. Compounds were tested at 10 concentrations. All assays were conducted in duplicate and repeated at least two times. Assay plates were incubated for 120 min at room temperature before centrifugation. Bound ligand was determined using a Packard Topcount scintillation counter. IC50 values were calculated using a non-linear curve fitting program and Ki values calculated using the Cheng-Prussoff equation.
# T1 sequence (P47898 whole entry): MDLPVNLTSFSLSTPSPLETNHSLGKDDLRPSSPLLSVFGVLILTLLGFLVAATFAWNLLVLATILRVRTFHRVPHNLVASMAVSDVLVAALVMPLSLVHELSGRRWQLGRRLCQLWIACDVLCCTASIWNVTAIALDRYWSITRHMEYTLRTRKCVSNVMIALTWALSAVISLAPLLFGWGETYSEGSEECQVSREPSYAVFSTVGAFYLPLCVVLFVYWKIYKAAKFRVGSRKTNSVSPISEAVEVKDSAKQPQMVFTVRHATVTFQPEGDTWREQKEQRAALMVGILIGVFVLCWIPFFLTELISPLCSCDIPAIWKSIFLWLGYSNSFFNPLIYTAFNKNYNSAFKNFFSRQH
row,SMILES,Ki
1,"COc1cccc2c1C(Nc1ccc3cc(NC(=O)N[C@@H]4C[C@H]5CC[C@@H](C4)N5C(C)C)ccc3n1)CC2 (mixture of isomers) [Example 186, rac-1-((3-exo)-8-Isopropyl-8-aza-bicyclo[3.2.1]oct-3-yl)-3-[2-(7-methoxy-indan-1-ylamino)-quinolin-6-yl]-urea]",5.7 nM
2,"COc1cccc2c1C(Nc1ccc3cc(NC(=O)N(C)[C@@H]4C[C@H]5CC[C@@H](C4)N5C(C)C)ccc3n1)CC2 (mixture of isomers) [Example 188, rac-1-((3-exo)-8-Isopropyl-8-aza-bicyclo[3.2.1]oct-3-yl)-3-[2-(7-methoxy-indan-1-ylamino)-quinolin-6-yl]-1-methyl-urea]",8.5 nM
3,"COc1cccc2c1C(Nc1ccc3cc(NC(=O)N(C)C4CCN(CC(C)(C)O)CC4)ccc3n1)CC2 (racemic) [Example 191, rac-1-[1-(2-Hydroxy-2-methyl-propyl)-piperidin-4-yl]-3-[2-(7-methoxy-indan-1-ylamino)-quinolin-6-yl]-1-methyl-urea]",6.9 nM
4,"COc1cccc2c1C(Nc1ccc3cc(NC(=O)C4CC4)ccc3n1)CO2 (racemic) [Example 195, rac-Cyclopropanecarboxylic acid [2-(4-methoxy-2,3-dihydro-benzofuran-3-ylamino)-quinolin-6-yl]-amide]",7.3 nM
5,"CC(C)(C)NC(=O)Nc1ccc2nc(N[C@@H]3CCc4ccccc43)ccc2c1 [Example 8, 1-tert-Butyl-3-[2-((R)-indan-1-ylamino)-quinolin-6-yl]-urea]",10.9 nM
6,"COCCNC(=O)Nc1ccc2nc(N[C@@H]3CCc4ccccc43)ccc2c1 [Example 17, 1-[2-((R)-Indan-1-ylamino)-quinolin-6-yl]-3-(2-methoxy-ethyl)-urea]",7 nM
7,"CN(C)CCNC(=O)Nc1ccc2nc(N[C@@H]3CCc4ccccc43)ccc2c1 [Example 18, 1-(2-Dimethylamino-ethyl)-3-[2-((R)-indan-1-ylamino)-quinolin-6-yl]-urea]",7.3 nM
8,"CN(CCNC(=O)Nc1ccc2nc(N[C@@H]3CCc4ccccc43)ccc2c1)C1CC1 [Example 32, 1-[2-(Cyclopropyl-methyl-amino)-ethyl]-3-[2-((R)-indan-1-ylamino)-quinolin-6-yl]-urea]",8.2 nM
9,"CSCCN1CCC(NC(=O)Nc2ccc3nc(N[C@@H]4CCc5ccccc54)ccc3c2)CC1 [Example 48, 1-[2-((R)-Indan-1-ylamino)-quinolin-6-yl]-3-[1-(2-methylsulfanyl-ethyl)-piperidin-4-yl]-urea]",7.7 nM
10,"O=C(Nc1ccc2nc(N[C@@H]3CCc4ccccc43)ccc2c1)NC1CCN(CCC(F)(F)F)CC1 [Example 63, 1-[2-((R)-Indan-1-ylamino)-quinolin-6-yl]-3-[1-(3,3,3-trifluoro-propyl)-piperidin-4-yl]-urea]",10.4 nM
11,"NS(=O)(=O)Nc1ccc2nc(N[C@@H]3CCc4ccccc43)ccc2c1 [Example 72, N-{2-[(1R)-2,3-dihydro-1H-inden-1-ylamino]quinolin-6-yl}sulfamide hydrochloride]",8.4 nM
12,"O=S(=O)(Nc1ccc2nc(N[C@@H]3CCc4ccccc43)ccc2c1)N1CCC(F)(F)C1 [Example 74, 3,3-Difluoro-pyrrolidine-1-sulfonic acid [2-((R)-indan-1-ylamino)-quinolin-6-yl]-amide]",8.9 nM
13,"O=S(=O)(Nc1ccc2nc(N[C@@H]3CCc4ccccc43)ccc2c1)N1CCOCC1 [Example 76, Morpholine-4-sulfonic acid [2-((R)-indan-1-ylamino)-quinolin-6-yl]-amide]",9.9 nM
14,"O=S(=O)(Nc1ccc2nc(N[C@@H]3CCc4ccccc43)ccc2c1)N1CCSCC1 [Example 78, Thiomorpholine-4-sulfonic acid [2-((R)-indan-1-ylamino)-quinolin-6-yl]-amide]",7 nM
15,"O=S(=O)(Nc1ccc2nc(N[C@@H]3CCc4ccccc43)ccc2c1)N1CCC2(CC1)OCCO2 [Example 82, 1,4-Dioxa-8-aza-spiro[4.5]decane-8-sulfonic acid [2-((R)-indan-1-ylamino)-quinolin-6-yl]-amide]",22.2 nM
16,"CN(C1CC1)S(=O)(=O)Nc1ccc2nc(N[C@@H]3CCc4ccccc43)ccc2c1 [Example 85, N-cyclopropyl-N′-{2-[(1R)-2,3-dihydro-1H-inden-1-ylamino]quinolin-6-yl}-N-methylsulfamide]",9.3 nM

# Next, values leading:
row,Ki,SMILES
1,1.8 nM,"COc1cccc2c1C(Nc1ccc3cc(NC(=O)NC4CCN(CCO)CC4)ccc3n1)CC2 (racemic) [Example 189, rac-1-[1-(2-Hydroxy-ethyl)-piperidin-4-yl]-3-[2-(7-methoxy-indan-1-ylamino)-quinolin-6-yl]-urea]"
2,3.5 nM,"O=C(Nc1ccc2nc(NC3CCc4cc(F)ccc43)ccc2c1)NC1CCN(CCO)CC1 (racemic) [Example 197, rac-1-[2-(5-Fluoro-indan-1-ylamino)-quinolin-6-yl]-3-[1-(2-hydroxy-ethyl)-piperidin-4-yl]-urea]"
3,6.7 nM,"COc1cccc2c1C(Nc1ccc3cc(NC(=O)N(C)C4CCN(CCO)CC4)ccc3n1)CC2 (racemic) [Example 206, rac-1-[1-(2-Hydroxy-ethyl)-piperidin-4-yl]-3-[2-(7-methoxy-indan-1-ylamino)-quinolin-6-yl]-1-methyl-urea]"
4,0.9 nM,"COc1cccc2c1C(Nc1ccc3cc(NC(=O)NC(C)C)ccc3n1)CC2 (single isomer, unassigned; (-)) [Example 13, (−)-1-Isopropyl-3-[2-(7-methoxy-indan-1-ylamino)-quinolin-6-yl]-urea]"
5,2.5 nM,"CC(C)NC(=O)Nc1ccc2nc(N[C@@H]3CCc4ccccc43)ccc2c1 [Example 3, 1-[2-((R)-Indan-1-ylamino)-quinolin-6-yl]-3-isopropyl-urea]"
6,2.9 nM,"O=C(Nc1ccc2nc(N[C@@H]3CCc4ccccc43)ccc2c1)NC1CCCCC1 [Example 5, 1-Cyclohexyl-3-[2-((R)-indan-1-ylamino)-quinolin-6-yl]-urea]"
7,3.4 nM,"CNC(=O)Nc1ccc2nc(N[C@@H]3CCc4ccccc43)ccc2c1 [Example 7, 1-[2-((R)-Indan-1-ylamino)-quinolin-6-yl]-3-methyl-urea]"
8,2.9 nM,"NC(=O)Nc1ccc2nc(N[C@@H]3CCc4ccccc43)ccc2c1 [Example 9, [2-((R)-Indan-1-ylamino)-quinolin-6-yl]-urea]"
9,4 nM,"O=C(Nc1ccc2nc(N[C@@H]3CCc4ccccc43)ccc2c1)NC1CCOCC1 [Example 19, 1-[2-((R)-Indan-1-ylamino)-quinolin-6-yl]-3-(tetrahydro-pyran-4-yl)-urea]"
10,1.8 nM,"CN1CCC(NC(=O)Nc2ccc3nc(N[C@@H]4CCc5ccccc54)ccc3c2)CC1 [Example 20, 1-[2-((R)-Indan-1-ylamino)-quinolin-6-yl]-3-(1-methyl-piperidin-4-yl)-urea]"
11,3.9 nM,"O=C(Nc1ccc2nc(N[C@@H]3CCc4ccccc43)ccc2c1)NC1CC1 [Example 21, 1-Cyclopropyl-3-[2-((R)-indan-1-ylamino)-quinolin-6-yl]-urea]"
12,4.7 nM,"O=C(NCC1CC1)Nc1ccc2nc(N[C@@H]3CCc4ccccc43)ccc2c1 [Example 23, 1-Cyclopropylmethyl-3-[2-((R)-indan-1-ylamino)-quinolin-6-yl]-urea]"
13,4.8 nM,"O=C(Nc1ccc2nc(N[C@@H]3CCc4ccccc43)ccc2c1)NC1CC2CCC1C2 (stereo partly drawn) [Example 26, 1-Bicyclo[2.2.1]hept-2-yl-3-[2-((R)-indan-1-ylamino)-quinolin-6-yl]-urea]"
14,3.9 nM,"O=C(Nc1ccc2nc(N[C@@H]3CCc4ccccc43)ccc2c1)NC1CCNCC1 [Example 39, 1-[2-((R)-Indan-1-ylamino)-quinolin-6-yl]-3-piperidin-4-yl-urea]"
15,4.1 nM,"O=C(Nc1ccc2nc(N[C@@H]3CCc4ccccc43)ccc2c1)NC1CCN(C2CC2)CC1 [Example 41, 1-(1-Cyclopropyl-piperidin-4-yl)-3-[2-((R)-indan-1-ylamino)-quinolin-6-yl]-urea]"
16,2.4 nM,"CC(C)N1CCC(NC(=O)Nc2ccc3nc(N[C@@H]4CCc5ccccc54)ccc3c2)CC1 [Example 42, 1-[2-((R)-Indan-1-ylamino)-quinolin-6-yl]-3-(1-isopropyl-piperidin-4-yl)-urea]"
17,2.5 nM,"COCCN1CCC(NC(=O)Nc2ccc3nc(N[C@@H]4CCc5ccccc54)ccc3c2)CC1 [Example 43, 1-[2-((R)-Indan-1-ylamino)-quinolin-6-yl]-3-[1-(2-methoxy-ethyl)-piperidin-4-yl]-urea]"
18,5.6 nM,"CN(C)S(=O)(=O)Nc1ccc2nc(N[C@@H]3CCc4ccccc43)ccc2c1 [Example 66, N′-{2-[(1R)-2,3-dihydro-1H-inden-1-ylamino]quinolin-6-yl}-N,N-dimethylsulfamide]"
19,3.2 nM,"O=S(=O)(Nc1ccc2nc(N[C@@H]3CCc4ccccc43)ccc2c1)N1CCCC1 [Example 73, Pyrrolidine-1-sulfonic acid [2-((R)-indan-1-ylamino)-quinolin-6-yl]-amide]"
20,2.5 nM,"O=S(=O)(Nc1ccc2nc(N[C@@H]3CCc4ccccc43)ccc2c1)N1C[C@@H]2C[C@H]1CO2 [Example 88, (1S,4S)-2-Oxa-5-aza-bicyclo[2.2.1]heptane-5-sulfonic acid [2-((R)-indan-1-ylamino)-quinolin-6-yl]-amide]"
21,6.8 nM,"COc1cccc2c1C(Nc1ccc3cc(NS(=O)(=O)N4C[C@@H]5C[C@H]4CO5)ccc3n1)CCC2 (stereo partly drawn) [Example 91, (1S,4S)-2-Oxa-5-aza-bicyclo[2.2.1]heptane-5-sulfonic acid [2-(8-methoxy-1,2,3,4-tetrahydro-naphthalen-1-ylamino)-quinolin-6-yl]-amide]"
